Source: PubChem BioAssay AID1418 (Emory University Molecular Libraries Screening Center, 2008)
Active and inactive are the calls of the source. No rule for the calls is given here.

Target: Induced myeloid leukemia cell differentiation protein Mcl-1 (Homo sapiens) (UniProt Q07820)
Experiment: blockers of Bid binding to Mcl-1 – biochemical, TR-FRET, dose response (AID 1418)
Settings: Mcl-1/Bid peptide binding, TR-FRET (europium/Dy647), 2 hr

Chain of Induced myeloid leukemia cell differentiation protein Mcl-1 (Homo sapiens) (Q07820 whole entry, looked up): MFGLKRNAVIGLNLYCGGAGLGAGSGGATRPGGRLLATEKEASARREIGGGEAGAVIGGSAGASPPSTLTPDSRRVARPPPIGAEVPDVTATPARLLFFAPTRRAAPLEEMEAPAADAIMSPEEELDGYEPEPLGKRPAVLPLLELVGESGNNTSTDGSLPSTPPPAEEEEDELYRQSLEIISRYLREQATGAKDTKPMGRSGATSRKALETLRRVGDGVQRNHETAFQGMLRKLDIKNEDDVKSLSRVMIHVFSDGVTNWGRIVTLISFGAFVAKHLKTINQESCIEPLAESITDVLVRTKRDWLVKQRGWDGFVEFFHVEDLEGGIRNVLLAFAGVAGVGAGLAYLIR

Compound	IC50
CC(=O)c1ccc(NC(=O)C(C)n2c3ccccc3c3nc(=O)cc(C)n32)cc1 (stereo unspecified)	> 54 µM (inactive)
O=S(=O)(c1ccccc1)N1CCN(Cc2ccccc2C(F)(F)F)CC1	> 54 µM (inactive)
CCN(CC)c1ccc2cc(-c3nc4ccccc4[nH]3)c(=O)oc2c1	1.62 µM
CC1(C(=O)NNC(=O)C2CCCCC2)CC1(Cl)Cl (stereo unspecified)	> 54 µM (inactive)
C/C(=N\NC(=O)c1cc(-c2cccc([N+](=O)[O-])c2)n[nH]1)c1ccccc1O	29 µM
Cc1nc(CSc2nc3[nH]ncc3c(=O)n2-c2ccccc2)cs1	> 54 µM (inactive)
CCn1c(C)cc(/C=C2/NC(=O)N(CC(=O)Nc3cccc(C)c3)C2=O)c1C	3.19 µM
O=c1n(S(=O)(=O)c2cccc3cccnc23)c2ccccc2n1S(=O)(=O)c1cccc2cccnc12	> 54 µM (inactive)
CCOC(=O)c1sc(N2N=C(C)C(N=Nc3cccc(C)c3)C2=O)nc1C (stereo unspecified)	1.42 µM
O=C(N/N=C/C=C/c1ccc([N+](=O)[O-])cc1)c1cccs1	inactive
Cc1ccc(S(=O)(=O)N(C)CC(O)Cn2c3ccccc3c3ccccc32)cc1 (stereo unspecified)	> 54 µM (inactive)
CCn1c(-c2cccc(Br)c2)n[nH]c1=S	> 54 µM (inactive)
CCN1C(=O)c2cccc3c(S(=O)(=O)Nc4ccccc4OC)ccc1c23	> 54 µM (inactive)
CC(C)(C)C(O)C(Oc1ccc(Cl)cc1)n1cncn1 (stereo unspecified)	> 54 µM (inactive)
O=c1cc(-c2ccc([N+](=O)[O-])cc2)nc2cc(-c3ccc(Cl)cc3)[nH]n12	4.96 µM
Cc1ccc(/C=N/NC(=O)c2cc3c(ccc4ccccc43)o2)cc1[N+](=O)[O-]	11.1 µM
COc1ccc(C2c3c(C)nn(-c4ccccc4)c3NC(=O)N2c2ccccc2)cc1 (stereo unspecified)	> 54 µM (inactive)
Cc1sc2ncnc(OCC(=O)Nc3ccc4c(c3)OCCO4)c2c1C	> 54 µM (inactive)
O=C(O)c1ccc(NS(=O)(=O)c2cccc3nsnc23)cc1	> 54 µM (inactive)
O=C(Nc1nccs1)C1CC(=O)N(Cc2ccco2)C1 (stereo unspecified)	> 54 µM (inactive)
NCCCC[C@H](NC(=O)C1CCNCC1)c1nnc(CN)o1	> 54 µM (inactive)
CNC(=O)CN(C1CCCCC1)S(=O)(=O)c1ccc(OC)c(Cl)c1	> 54 µM (inactive)
Cc1cccc(C)c1NC(=O)C1c2ccccc2Oc2ccccc21	> 54 µM (inactive)
O=C1CSC(c2ccncc2)N1Cc1ccccc1 (stereo unspecified)	> 54 µM (inactive)
O=C1Nc2ccccc2/C1=N/N=C/c1ccc(-c2ccc([N+](=O)[O-])cc2)o1	0.59 µM
CC(Cc1ccccc1)NCC(=O)Nc1cc(N(C)C)nc2ccccc12 (stereo unspecified)	> 54 µM (inactive)

Compound	IC50
O=C(CN1C(=O)c2cccc3cccc1c23)Nc1ccc(S(=O)(=O)N2CCOCC2)cc1	> 54 µM (inactive)
Cc1ccc(S(=O)(=O)CCNC(=O)Cc2ccccc2)cc1	> 54 µM (inactive)
CCOC(=O)c1c(/N=C/C2C(=O)NC(=S)NC2=O)sc(C)c1C	2.08 µM
c1ccc2[nH]c(CN3CCOCC3)nc2c1	> 54 µM (inactive)
O=C(COC(=O)c1cc[n+]([O-])cc1)Nc1ccccc1Cl	> 54 µM (inactive)
O=[N+]([O-])C(=c1ccc2c(c1)N1C3=C(CCCC3)CC3CCCCC31N=2)[N+](=O)[O-] (stereo unspecified)	0.73 µM
O=C(O)c1ccc(N2C(=O)/C(=C/c3ccc(-c4ccc([N+](=O)[O-])cc4)o3)C=C2c2ccccc2)cc1	1.42 µM
NNc1nc(-c2ccccc2)cs1	0.58 µM
COc1cccc(C(=O)Nc2ccc3c(c2)C(=O)c2ccccc2C3=O)c1	2.79 µM
CC1=C(SCCC#N)S/C(=C2\SC(C)=C(SCCC#N)S2)S1	2.84 µM
S=C(NNc1ccnc2cc(Cl)ccc12)Nc1ccc(Cl)cc1Cl	2.22 µM
Clc1ccc(OCCCNCc2ccccc2)c(Br)c1	> 54 µM (inactive)
O=[N+]([O-])c1ccc(/C=N/NC(=S)Nc2ccc(Cl)cc2Cl)s1	1.48 µM
CCOC(=O)c1cc2occc2n1CC(=O)NC1CCCCC1C (stereo unspecified)	> 54 µM (inactive)
COC(=O)CSc1nc(C)c(C)c(C)c1C(N)=O	> 54 µM (inactive)
CCN1/C(=C\C=C2\C(=O)N(c3ccccc3)C(=S)N2C)Sc2ccccc21	2.97 µM
O=C(COc1cccnc1[N+](=O)[O-])c1ccc(Cl)s1	> 54 µM (inactive)
O=[N+]([O-])c1cc(Br)c(O)c(/C=N/Nc2nnnn2-c2cccc3ccccc23)c1	13.9 µM
CC(=O)N(/N=C/c1cccc(C)c1)c1nc(-c2ccc(Br)cc2)cs1	> 54 µM (inactive)
O=C(COc1ccc2c(c1)CCC2)N1CCc2ccccc21	> 54 µM (inactive)
FC(F)(F)c1ccncc1-c1nnnn1-c1ccc(Cl)cc1	> 54 µM (inactive)
Cc1ccc(NC(=O)C(=O)NCc2ccc(/C=C(/C#N)C(=O)NCc3cccnc3)o2)cc1C	> 54 µM (inactive)
COc1cccc(C(=O)N2CCN(Cc3ccccn3)CC2)c1OC	> 54 µM (inactive)
O=C(O)c1cnn2c(C(F)(F)F)cc(-c3ccco3)nc12	> 54 µM (inactive)
COc1ccc(N/C=C2\C(=O)CCc3c2oc2cc(Cl)c(O)c(Cl)c32)cc1	0.79 µM
NC(N)=NS(=O)(=O)c1ccc(NC(=S)NC(=O)c2sc3ccccc3c2Cl)cc1	1.04 µM

Compound	IC50
Cc1nnc(Sc2c(N)n(C)c(=O)[nH]c2=O)s1	> 54 µM (inactive)
O=C(O)CCc1nn2c3ccccc3n(CC(=O)c3ccccc3)c2nc1=O	> 54 µM (inactive)
Cc1cccc(-n2c(SCC(=O)Nc3nnc(C)s3)nnc2-c2ccoc2C)c1	> 54 µM (inactive)
COc1cccc(Nc2nc(NCC3CCCO3)c3ccccc3n2)c1 (stereo unspecified)	> 54 µM (inactive)
C#CCOCCOCCOCCNc1nc(N2CCN(C(=O)[C@H](CCCCN)n3cc(C(N)CC(C)C)nn3)CC2)nc(N2CCN(C(=O)[C@H](CCC(=O)O)n3cc(C(N)[C@H](C)CC)nn3)CC2)n1 (stereo partly specified)	22.2 µM
O=C(O)CCN1C(=O)/C(=C\c2ccc(-c3nc4ccccc4s3)o2)SC1=S	0.57 µM
CNC(=O)CC1C(=O)N(c2ccc(OC)cc2)C(=S)N1NC(=O)c1cccc(F)c1 (stereo unspecified)	> 54 µM (inactive)
C/C(C/C(C)=C1/SC(=S)NC1=O)=C1\SC(=S)NC1=O	1.25 µM
CC(/C=C1\SC(=S)N(CCCC(=O)Nc2ccc(C(=O)O)c(O)c2)C1=O)=C\c1ccccc1	3.49 µM
CC(/C=N\Nc1nnc2c(n1)[nH]c1c(C)cccc12)=C\c1ccco1	1.66 µM
COC(=O)/C=C1/SC(=Nc2ccc(C)cc2C)NC1=O	> 54 µM (inactive)
Cc1ccccc1NC(=O)c1c(C)[nH]c(=S)c(C#N)c1-c1ccc(Cl)cc1	> 54 µM (inactive)
O=c1c2ccccc2nc(CSc2nnnn2-c2ccccc2)n1-c1ccccc1	18.7 µM
O=C(CC(C(=O)O)c1c[nH]c2ccccc12)c1ccccc1 (stereo unspecified)	> 54 µM (inactive)
COCC(O)CSc1nc(C)[nH]c1[N+](=O)[O-] (stereo unspecified)	> 54 µM (inactive)
O=C(N/N=C/C(Br)=C\c1ccccc1)c1ccco1	> 54 µM (inactive)
O=C(/C=C/N1CCOCC1)c1cc2ccccc2o1	> 54 µM (inactive)
O=c1c2ccccc2nc2n1CCC2	0.52 µM
CCN(CC)C(=O)COC(=O)c1cc(-c2ccc(OC)cc2)nc2ccccc12	> 54 µM (inactive)
CSc1ccccc1NC(=O)CNCCCN1CCOCC1	> 54 µM (inactive)
O=C(Nc1cccc(Cl)c1)c1cc(N=Nc2ccc([N+](=O)[O-])cc2Cl)ccc1O	4.18 µM
Cc1ccc(C(=O)CN(C(=O)c2ccc(Cl)c(Cl)c2)N2C(=O)C3C4C=CC(C4)C3C2=O)cc1 (stereo unspecified)	> 54 µM (inactive)
CC(=O)Oc1ccc(Cl)cc1/C=C/c1ccc2ccccc2n1	> 54 µM (inactive)
Clc1ccc(SCCn2ccnc2)cc1	inactive
COC(=O)c1c(C)[nH]c(C)c1C(C)=O	0.54 µM
Clc1ccccc1CN1CCc2sccc2C1	> 54 µM (inactive)

Compound	IC50
Cc1nn(Cc2ccccc2)c(C)c1NC(=O)CSc1nc(-c2ccccc2)nc2c1cnn2-c1ccccc1	0.47 µM
O=C(O)/C=C\C(=O)N1CCc2ccccc21	> 54 µM (inactive)
Cc1ccc(NC(=O)Cn2c(O)c(N=NC(=O)c3cc4ccccc4cc3O)c3ccccc32)cc1	6.65 µM
CCOc1ccc(C(Nc2cccnc2)c2cc(Cl)c3cccnc3c2O)cc1 (stereo unspecified)	0.51 µM
CCOC(=O)C1CCCN(c2c(N3CCN(c4cccc(Cl)c4)CC3)c(=O)c2=O)C1 (stereo unspecified)	> 54 µM (inactive)
CCc1cc(=O)oc2cc3occ(-c4ccc(OC)c(F)c4)c3cc12	> 54 µM (inactive)
C#Cc1ccc([C@@H]2C=C(C(=O)N3CCN(Cc4ccc5c(c4)OCO5)CC3)O[C@H](OCCCCO)C2)cc1	> 54 µM (inactive)
COc1ccccc1NC(=O)c1sc2ncn(Cc3ccc(C)cc3)c(=O)c2c1C	7.75 µM
Cc1ccc(-c2cc(-c3ccc4c(c3)OCO4)c(C#N)c(N)n2)o1	16.4 µM
CCCCCCCCCCCCCCCC(O)C(N)CO (stereo unspecified)	> 54 µM (inactive)
COc1cc(NC(=O)COc2ccccc2)c(OC)cc1NC(C)=O	> 54 µM (inactive)
O=C(N[C@@H](Cc1ccccc1)C(=O)O)c1ccncc1	> 54 µM (inactive)
COc1ccc(OC)c(Nc2nc(-c3cccc([N+](=O)[O-])c3)nc3ccccc23)c1	> 54 µM (inactive)
c1ccc(CSc2nnc(-c3ccco3)c(-c3ccco3)n2)cc1	10.2 µM
C=CCc1ccc(OCCOCCOc2cccc3ccc(C)nc23)c(OC)c1	> 54 µM (inactive)
O=C(Nc1ccc(S(=O)(=O)Nc2ncccn2)cc1)c1ccc2ncsc2c1	0.86 µM
Cc1nn(-c2ccccc2C(=O)O)c(=O)c2ccccc12	> 54 µM (inactive)
C=CCOC(=O)/C(=C/c1ccco1)NC(=O)/C=C/c1ccccc1	> 54 µM (inactive)
O=C(CN1C(=O)/C(=C2\SC(=S)N(C3CCS(=O)(=O)C3)C2=O)c2ccccc21)Nc1ccc(F)cc1 (stereo unspecified)	0.72 µM
O=C(Nn1cnnc1)c1ccccc1CCc1ccccc1	> 54 µM (inactive)
COc1ccc(-c2ccc(/C=C3/C(=N)N4C=CSC4=NC3=O)o2)c([N+](=O)[O-])c1	1.46 µM
O=C(Nc1sc2c(c1C(=O)O)CCC2)c1ccccc1	> 54 µM (inactive)
Cc1cc(NS(=O)(=O)c2ccc(NC(NC(=O)C(C(F)(F)F)C(F)(F)F)(C(F)(F)F)C(F)(F)F)cc2)no1	1.62 µM
